From the supplement of paper PMC10307832

These cell lines were tested with Cc1ccccc1C(C(=O)NC1CCCCC1)N(C(=O)Cn1ccnc1C)c1cccc(F)c1 [IDH-C35] + Nc1nc2[nH]cc(CCc3ccc(C(=O)N[C@@H](CCC(=O)O)C(=O)O)cc3)c2c(=O)[nH]1 [Pemetrexed] (partner 0.2 µM) (assay: relative viability (nuclei count vs DMSO), 5 days (fraction); higher = more cells survive). Details: first compound 8 µM.
Outline: (§1)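 Dosing by pin tool came one day after lung cancer cell lines were seeded in 1536-well plates, using either one drug or a fixed anchor-drug dose plus five library-drug doses (not always all listed) in √10 steps. After 5 days, nuclei were counted on 4× images. Relative viability is treated-well nuclei count divided by vehicle-well nuclei count, and values are medians of duplicate plates.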

First: NCI-H1755
Second: NCI-H2023
The relative viability of the first is higher: 0.473 for the first, 0.2 for the second.

The cell lines below were run with Cc1ccccc1C(C(=O)NC1CCCCC1)N(C(=O)Cn1ccnc1C)c1cccc(F)c1 [IDH-C35] + COc1cc2c(Oc3ccc(NC(=O)C4(C(=O)Nc5ccc(F)cc5)CC4)cc3F)ccnc2cc1OCCCN1CCOCC1 [Foretinib] (partner 0.25 µM) in the same assay as above. Details: first compound 0.08 µM.
Outline: as §1

Compared with NCI-H2405, HOP-62 is higher in relative viability: 1.04 for the first, 1.11 for the second.

Compared with LU99A, BEN is lower in relative viability: 0.939 for the first, 0.631 for the second.

Going from HARA to HCC-78, the relative viability falls from 0.876 to 0.586.

Compared with NCI-H322M, LCLC-97TM1 is lower in relative viability: 0.93 for the first, 0.921 for the second.

Compared with NCI-H2009, A-427 is lower in relative viability: 1.17 for the first, 1.01 for the second.

First: NCI-H441
Second: NCI-H1734
The relative viability of the first is higher: 0.863 for the first, 0.799 for the second.

Going from NCI-H460 to NCI-H2347, the relative viability rises from 1.02 to 1.19.

Compared with SK-LU-1, NCI-H1395 is higher in relative viability: 0.833 for the first, 0.972 for the second.

First: 201T
Second: NCI-H1915
The relative viability of the first is higher: 1.12 for the first, 1.07 for the second.

Going from HCC-827 to LXF-289, the relative viability falls from 1.05 to 0.969.

Going from NCI-H23 to NCI-H647, the relative viability rises from 0.912 to 1.36.

Going from CAL-12T to NCI-H1651, the relative viability falls from 1.13 to 0.858.

Compared with EPLC-272H, NCI-H2228 is higher in relative viability: 0.659 for the first, 0.939 for the second.

Compared with NCI-H1355, NCI-H3122 is lower in relative viability: 1.04 for the first, 0.919 for the second.

Compared with NCI-H1437, NCI-H1755 is lower in relative viability: 1.29 for the first, 0.951 for the second.

NCI-H2023 was tested, and the relative viability was 0.918.

Same assay, conditions: first compound 0.253 µM

First: NCI-H2405
Second: HOP-62
The relative viability of the first is higher: 1.04 for the first, 1.01 for the second.

First: LU99A
Second: BEN
The relative viability of the first is higher: 0.915 for the first, 0.685 for the second.

First: HARA
Second: HCC-78
The relative viability of the first is higher: 0.906 for the first, 0.57 for the second.

Going from NCI-H322M to LCLC-97TM1, the relative viability falls from 0.886 to 0.865.

First: NCI-H2009
Second: A-427
The relative viability of the first is higher: 1.28 for the first, 1 for the second.

Going from NCI-H441 to NCI-H1734, the relative viability rises from 0.753 to 0.913.

Compared with NCI-H460, NCI-H2347 is lower in relative viability: 1.01 for the first, 0.992 for the second.

Compared with SK-LU-1, NCI-H1395 is higher in relative viability: 0.839 for the first, 0.976 for the second.

Compared with 201T, NCI-H1915 is higher in relative viability: 1.06 for the first, 1.13 for the second.

Going from HCC-827 to LXF-289, the relative viability falls from 0.964 to 0.94.

First: NCI-H23
Second: NCI-H647
The relative viability of the first is lower: 1.03 for the first, 1.13 for the second.

First: CAL-12T
Second: NCI-H1651
The relative viability of the first is higher: 1.22 for the first, 0.809 for the second.

Going from EPLC-272H to NCI-H2228, the relative viability falls from 0.828 to 0.814.

First: NCI-H1355
Second: NCI-H3122
The relative viability of the first is higher: 1.02 for the first, 0.984 for the second.

Going from NCI-H1437 to NCI-H1755, the relative viability falls from 1.28 to 0.921.

NCI-H2023 was tested, and the relative viability was 1.

Same assay, conditions: first compound 0.8 µM

Going from NCI-H2405 to HOP-62, the relative viability falls from 1.06 to 0.999.

Compared with LU99A, BEN is lower in relative viability: 0.81 for the first, 0.616 for the second.

First: HARA
Second: HCC-78
The relative viability of the first is higher: 0.885 for the first, 0.563 for the second.

First: NCI-H322M
Second: LCLC-97TM1
The relative viability of the first is lower: 0.945 for the first, 0.947 for the second.

First: NCI-H2009
Second: A-427
The relative viability of the first is higher: 1.24 for the first, 0.967 for the second.

First: NCI-H441
Second: NCI-H1734
The relative viability of the first is higher: 0.948 for the first, 0.936 for the second.

Going from NCI-H460 to NCI-H2347, the relative viability falls from 1.02 to 0.799.

Going from SK-LU-1 to NCI-H1395, the relative viability rises from 0.87 to 1.07.

Going from 201T to NCI-H1915, the relative viability falls from 1.08 to 1.07.

HCC-827 and LXF-289 are the same in relative viability: 1.01 for the first, 1.01 for the second.

First: NCI-H23
Second: NCI-H647
The relative viability of the first is lower: 1.1 for the first, 1.28 for the second.

Going from CAL-12T to NCI-H1651, the relative viability falls from 1.1 to 0.732.

Compared with EPLC-272H, NCI-H2228 is higher in relative viability: 0.751 for the first, 0.973 for the second.

Going from NCI-H1355 to NCI-H3122, the relative viability falls from 0.935 to 0.915.

Compared with NCI-H1437, NCI-H1755 is lower in relative viability: 1.25 for the first, 0.874 for the second.

NCI-H2023 showed a relative viability of 1.09.

Same assay, conditions: first compound 2.53 µM

Going from NCI-H2405 to HOP-62, the relative viability falls from 1.14 to 1.09.

Going from LU99A to BEN, the relative viability falls from 0.69 to 0.629.

Compared with HCC-78, NCI-H322M is higher in relative viability: 0.555 for the first, 0.916 for the second.

Going from LCLC-97TM1 to NCI-H2009, the relative viability rises from 1.02 to 1.13.

First: A-427
Second: NCI-H441
The relative viability of the first is lower: 0.903 for the first, 1 for the second.

Going from NCI-H1734 to NCI-H460, the relative viability rises from 0.796 to 0.989.

First: NCI-H2347
Second: SK-LU-1
The relative viability of the first is higher: 0.955 for the first, 0.878 for the second.

Compared with NCI-H1395, 201T is higher in relative viability: 0.896 for the first, 1.01 for the second.

Compared with NCI-H1915, HCC-827 is lower in relative viability: 1.05 for the first, 1.03 for the second.

Going from LXF-289 to NCI-H23, the relative viability rises from 1.01 to 1.04.

First: NCI-H647
Second: CAL-12T
The relative viability of the first is higher: 1.17 for the first, 1.01 for the second.

First: NCI-H1651
Second: EPLC-272H
The relative viability of the first is higher: 0.822 for the first, 0.71 for the second.

Going from NCI-H2228 to NCI-H1355, the relative viability rises from 0.853 to 0.982.

Compared with NCI-H3122, NCI-H1437 is higher in relative viability: 0.928 for the first, 1.29 for the second.

First: NCI-H1755
Second: NCI-H2023
The relative viability of the first is higher: 0.95 for the first, 0.76 for the second.

Same assay, conditions: first compound 8 µM

Going from NCI-H2405 to HOP-62, the relative viability rises from 1.05 to 1.13.

First: LU99A
Second: BEN
The relative viability of the first is higher: 0.85 for the first, 0.593 for the second.

First: HARA
Second: HCC-78
The relative viability of the first is higher: 1.01 for the first, 0.525 for the second.

Compared with NCI-H322M, LCLC-97TM1 is lower in relative viability: 0.983 for the first, 0.954 for the second.

Going from NCI-H2009 to A-427, the relative viability falls from 1.18 to 0.944.

First: NCI-H441
Second: NCI-H1734
The relative viability of the first is higher: 0.888 for the first, 0.774 for the second.

First: NCI-H460
Second: NCI-H2347
The relative viability of the first is lower: 0.904 for the first, 1.01 for the second.

Going from SK-LU-1 to NCI-H1395, the relative viability rises from 0.901 to 0.971.

Going from 201T to NCI-H1915, the relative viability rises from 1.05 to 1.07.

Going from HCC-827 to LXF-289, the relative viability falls from 1.05 to 0.969.

Going from NCI-H23 to NCI-H647, the relative viability rises from 0.846 to 1.02.

First: CAL-12T
Second: NCI-H1651
The relative viability of the first is higher: 1.13 for the first, 0.79 for the second.

First: EPLC-272H
Second: NCI-H2228
The relative viability of the first is higher: 0.733 for the first, 0.667 for the second.

Compared with NCI-H1355, NCI-H3122 is lower in relative viability: 1 for the first, 0.958 for the second.
